# According to US5981498A, “Agent for improving the blood circulation” (Kabushiki Kaisha Hayashibara Seibutsu Kagaku Kenkyujo, priority 1997, dated 1999):
# How the values were obtained:
# [1] = test system: lumbago or chronic stiffness in the shoulder; assay: Clinical test, cataplasm (Table 1); assay type: in vivo, human; conditions: versus sucrose; Tables 1 and 2
# Method: A clinical paramedic conducted the experiment and, after the experiment, asked the therapeutic effect and the side effects of the volunteers. The therapeutic effect was evaluated with four ranks of "very effective", "effective", "unchanged", and "worsened", and the effectivity (%) was calculated as a percentage of the number of volunteers, who answered "very effective" and "effective", to the total number of volunteers.
# [2] = test system: blood flow, dorsum cucullaris of volunteer with stiffness in both shoulders; assay: Plethysmogram / volume pulse wave (PTG), improvement of blood circulation; assay type: in vivo, human; conditions: similar experiment on vitamin P, cataplasm, MV and PTG
# Excerpt: MV is an apparatus for recording micro-vibration of ballistic components accompanied by muscular fibers in vivo and heartbeat by converting the micro-vibration into an electrodynamic phenomenon where peaks are detected at a high-frequency region in patients with muscular rigidity such as stiffness in the shoulder, and the peaks are shifted to a lower-frequency region as the muscular rigidity is relived. PTG is an apparatus for detecting blood flow as a vascular change in pressure and for expressing change in volume as a wave-height level; When the wave-height level is increased as the increment of blood flow in a stiff part in the shoulder, meaning that blood circulation is improved.
# The patient was monitored for both MV and PTG by a polygraph for 20 min, and the data were recorded by a data recorder.
# On the next morning, the cataplasm was removed from the volunteer while they were allowed to lay on the bed, followed by attaching pickups to the same part as of the cataplasm for measuring and recording MV and PTG for 30 min and for two hours, respectively, similarly as above.
Compound,effect of trehalose on the muscular-rigidity-relieving activity of glycosyl vitamin P [1],effect as compared with control [2]
OC[C@H]1O[C@H](O[C@H]2O[C@H](CO)[C@@H](O)[C@H](O)[C@H]2O)[C@H](O)[C@@H](O)[C@@H]1O [trehalose],significantly augmented,
vitamin P,,substantially showed no remarkable effect
